Results published in patent publication US12098129B2, “Pharmaceutical composition for treating fibrosis” (LTT BIO-PHARMA CO., LTD., priority 2018, dated 2024).
Entries after “also recorded” stand apart in the source; their conditions may differ.

Tests used:
[1] = system: BLM pulmonary injury model mouse; experiment: BLM pulmonary injury model: H&E / Masson's trichrome staining, Ashcroft score, hydroxyproline; type: in vivo; settings: for BLM-dependent pulmonary injuries: once a day day 10 to day 18, BLM 1 mg/kg, pirfenidone 200 mg/kg, nintedanib 30 mg/kg, tolperisone 5 mg/kg
LL29 cells [2] = experiment: TGF-β1-dependent activation of lung fibroblast cells: α-SMA and Col1a1 mRNA by real-time RT-PCR; type: cell-based, human
Description: Total RNA of cells was extracted by using RNeasy kit (Qiagen). 2.5 μg of total RNA was subjected to reverse transcription reaction in accordance with the protocol from Takara Bio Inc by using a first-strand cDNA synthesis kit (Takara Bio Inc). The synthesized cDNA was analyzed with a CFX96 (trademark) real time system by using SsoFast EvaGreen Supermix. For equalizing the total RNA amounts in the reactions, a glyceraldehyde-3-phosphate dehydrogenase (GAPDH) gene was used as an internal standard.
(§1) A549 cells (human alveolar epithelial cells) and LL29 cells (IPF patient-derived lung fibroblast cells) were cultured under conditions of 37° C. and 5% CO2 by using, respectively, Dulbecco's modified Eagle's medium containing 10% FBS and Ham's F-12K (Kaighn's) medium containing 15% FBS.
(§2) As described above, myofibroblast cells played an important role on pulmonary fibrosis in patients with IPF and bleomycin-induced pulmonary fibrosis. Thus, with attention focused on myofibroblast cells, the effects of idebenone and COQ10 were examined. […] Thus, the effects of idebenone and CoQ10 on TGF-β1-dependent activation of lung fibroblast cells (differentiation into myofibroblast cells) were compared. LL29 cells were treated with idebenone or CoQ10, and then treated with TGF-β1, and the amount of collagen in the medium was measured. […] Next, the effect of idebenone was examined by using the levels of α-SMA and mRNA of collagen as indices.

A549 cells = experiment: Number of living and dead cells by trypan blue staining, A549 cells; type: cell-based, human
Description: as §1
(§3) The number of living cells was measured by an MTT method or trypan blue staining using Countess (trademark) Automated Cell Counter (Invitrogen, Carlsbad, CA). For evaluation of cell death, LDH activity in the medium was measured in accordance with the protocol of the assay kit.
(§4) Thus, the present inventors measured the number of living cells and the number of dead cells with the aid of trypan blue staining.

LL29 cells [3] = experiment: LDH activity in the medium (cell death), LL29 cells; type: cell-based, human; settings: 150 μM
Description: as §1, §3
(§5) More minute doses than the doses used during screening test were applied to examine the cell death inducing action of idebenone and to simultaneously conduct a screening reproducibility experiment.

LL29 cells [4] = experiment: Number of living and dead cells by trypan blue staining, LL29 cells; type: cell-based, human
Description: as §1, §3, §4

[5] = system: LL29 cells (IPF patient-derived lung fibroblast cells); experiment: MTT cell viability of lung fibroblast cells compared with alveolar epithelial cells; type: cell-based, human; settings: for fibroblast cell-selective decrease in cell viability / cell death (LL29 versus A549): LL29 versus A549 cells, survived cell number; for difference in IC50 (concentration required to decrease the cell viability by 50%) between LL29 and A549 cells: screening of existing approved drugs, MTT, 24 hours, IC50 for LL29 lower than for A549
Description: as §1, §3
For a specific method, IPF patient-derived lung fibroblast cells (LL29 cells) and human alveolar epithelial cells (A549 cells) were treated with existing approved drugs, and the cell viability 24 hours later was evaluated by an MTT method.
As with (b-1) above, IPF patient-derived lung fibroblast cells (LL29 cells) and human alveolar epithelial cells (A549 cells) were treated with existing approved drugs, and the cell viability 24 hours later was evaluated by an MTT method.

LL29 cells [6] = experiment: TGF-β1-dependent activation of lung fibroblast cells: amount of collagen in the medium; type: cell-based, human; settings: LL29 cells treated with drug, then TGF-β1
Description: as §1, §2

[7] = system: A549 cells (human alveolar epithelial cells); experiment: LDH activity in the medium (cell death), A549 cells; type: cell-based; settings: 150 μM
Description: as §1, §3, §5

[8] = system: BLM pulmonary injury model mouse; experiment: BLM pulmonary injury model: α-SMA immunostaining of the lung (myofibroblast cells); type: in vivo; settings: FIGS. 7A and 7B
Description: (§6) On day 1, BLM was administered via the airway to a normally reared male ICR mouse to prepare a BLM pulmonary injury model mouse.
A method for immunostaining with α-SMA was carried out by blocking the section with 2.5% goat serum for 10 minutes, and then performing a primary antibody treatment (against α-SMA, 1:100 dilution). At 12 hours later, the section was incubated with Alexa Fluor 594 goat anti-rabbit immunoglobulin G and DAPI for 2 hours. Thereafter, the section was encapsulated by using VECTA SHIELD. The section was photographed by using a microscope (Olympus DP71).
An α-SMA-positive region was quantitatively determined by using Image J software (National Institutes of Health, Bethesda, MD) The number of 8-OHdG-positive cells was quantitatively determined by using Definiens Tissue Studio (trademark) software (CTC Life Science Corporation, Tokyo, Japan).

[9] = system: BLM pulmonary injury model mouse; experiment: BLM pulmonary injury model: lung function (elastance, FVC) with ventilator for mice; type: in vivo
Description: as §6
The lung function was measured in accordance with previous literature by using a computer-controlled ventilator for small animals (FlexiVent; SCIREQ, Montreal, Canada). A metal tube (with an outer diameter of 1.27 mm and an inner diameter of 0.84 mm) was inserted by 8 mm into a mouse anesthetized with chloral hydrate (500 mg/kg), and the mouse was caused to breathe mechanically at a rate of 150 breaths/min with a tidal volume of 8.7 ml/kg and a positive end-expiratory pressure ventilation of 2-3 cm H2O.
The total respiratory elastance and the tissue elastance were measured by the snap shot and the forced oscillation technique, respectively. The forced vital capacity was measured in accordance with Chest 142, 1011-1019 (2012) by using the computer-controlled ventilator for small animals and a negative pressure reservoir (SCIREQ, Montreal, Canada). All the data was analyzed by using FlexiVent software (version 5.3; SCIREQ, Montreal, Canada).

[10] = airway administration, comparison idebenone / CoQ10 (FIGS. 5A to 5C)
[11] = airway administration, pre-administration (FIG. 3D)
[12] = airway administration, day 10 to day 19 (FIG. 10D)
[13] = oral, once a day day 10 to day 18, pirfenidone 200 mg/kg, nintedanib 30 mg/kg, tolperisone 5 mg/kg
[14] = oral, 15 or 50 mg/kg once a day day 10 to day 18

## COC1=C(OC)C(=O)C(CCCCCCCCCCO)=C(C)C1=O [idebenone]
[1]; airway administration, 18.8 mg/kg, alone (without BLM)
  effect of drug alone on pulmonary fibrosing and the respiratory function: did not affect pulmonary fibrosing and the respiratory function
[1]; [10]
  pulmonary injury and fibrosing by bleomycin: suppressed
[1]; airway administration, pre-administration (FIG. 3B)
  BLM-dependent increase in Ashcroft score: markedly suppressed such an increase
[1]; airway administration, pre-administration (FIG. 3C)
  BLM-dependent increase in amount of hydroxyproline: markedly suppressed such an increase
[1]; airway administration, pre-administration day 1 to day 7 (FIG. 3A)
  BLM-dependent pulmonary injuries and collagen accumulation: markedly suppressed such injuries and collagen accumulation
[1]; therapeutic effects, comparison idebenone / CoQ10 (FIGS. 6A to 6C)
  pulmonary injury and fibrosing by bleomycin: suppressed
[1]; therapeutic: airway administration started 10 days after BLM (FIGS. 4A to 4C)
  pulmonary injury and fibrosing 20 days after administration of BLM: markedly suppressed pulmonary injury and fibrosing
LL29 cells [2]
  TGF-β1-induced expression of α-SMA and Col1a1 mRNA: suppressed such induction
A549 cells
  concentration at which suppression of cell proliferation started: 175 µM
A549 cells; examined concentrations
  induction of cell death: did not induce cell death at examined concentrations
LL29 cells [3]
  LDH released into the medium: LDH was released into the medium
LL29 cells [4]
  concentration at which induction of cell death started: 175 µM
  concentration at which suppression of proliferation started: 75 µM
[5]
  fibroblast cell-selective decrease in cell viability / cell death (LL29 versus A549): decreased the cell viability of LL29 cells (lung fibroblast cells) at a concentration lower than a concentration at which the cell viability of A549 cells (alveolar epithelial cells) decreased
  difference in IC50 (concentration required to decrease the cell viability by 50%) between LL29 and A549 cells: particularly marked difference in value of IC50
LL29 cells [6]
  TGF-β1-induced increase in amount of collagen in the medium: suppressed such an increase
[7]
  LDH released into the medium: little LDH was released
[8]
  bleomycin-induced increase in number of α-SMA-positive cells (myofibroblast cells) of the lung: markedly suppressed such an increase
[9]; [11]
  BLM-dependent decrease in FVC: tended to suppress such a decrease
  BLM-dependent increase in total respiratory system elastance and tissue elastance: suppressed such an increase
[9]; therapeutic: airway administration started 10 days after BLM (FIG. 4D)
  BLM-dependent decrease in respiratory function: markedly suppressed a BLM-dependent decrease in respiratory function

## CCc1ccc(C(=O)C(C)CN2CCCC2)cc1 (centres unmarked) [inaperisone]
[5]
  fibroblast cell-selective decrease in cell viability / cell death (LL29 versus A549): induced fibroblast cell-selective cell death

## COC1=C(OC)C(=O)C(C/C=C(\C)CC/C=C(\C)CC/C=C(\C)CC/C=C(\C)CC/C=C(\C)CC/C=C(\C)CC/C=C(\C)CC/C=C(\C)CC/C=C(\C)CCC=C(C)C)=C(C)C1=O [CoQ10]
[1]; [10]
  pulmonary injury and fibrosing by bleomycin: suppressed
LL29 cells [2]
  TGF-β1-induced expression of α-SMA and Col1a1 mRNA: did not suppress such induction
LL29 cells [6]
  TGF-β1-induced increase in amount of collagen in the medium: did not suppress such an increase
[8]
  bleomycin-induced increase in number of α-SMA-positive cells (myofibroblast cells) of the lung: did not exhibit such a suppressing effect

## Clc1ccc2nsnc2c1NC1=NCCN1 [tizanidine]
[5]
  fibroblast cell-selective decrease in cell viability / cell death (LL29 versus A549): did not exhibit such an effect

## C[C@H](CN1CCCC1)C(=O)c1ccc(C(F)(F)F)cc1 [lanperisone]
[5]
  fibroblast cell-selective decrease in cell viability / cell death (LL29 versus A549): induced fibroblast cell-selective cell death

## Cc1ccc(=O)n(-c2ccccc2)c1 [pirfenidone]
[1]; oral, day 20
  BLM-dependent pulmonary injuries: hardly suppressed BLM-dependent pulmonary injuries
[5]
  fibroblast cell-selective decrease in cell viability / cell death (LL29 versus A549): did not induce fibroblast cell-selective cell death; also recorded: hardly induced fibroblast cell-selective cell death

## Cc1ccc(C(=O)C(C)CN2CCCCC2)cc1 (centres unmarked) [tolperisone]
[1]; airway administration, day 10 to day 19 (FIG. 10C)
  BLM-dependent increase in amount of hydroxyproline: hardly suppressed such an increase
[1]; airway administration, day 10 to day 19 (FIGS. 10A and 10B)
  BLM-dependent pulmonary injuries and collagen accumulation: slightly suppressed such injuries and collagen accumulation
[1]; intraperitoneal administration
  BLM-dependent increase in amount of hydroxyproline: markedly suppressed such an increase
  BLM-dependent pulmonary injuries and collagen accumulation: suppressed such injuries and collagen accumulation
[1]; oral administration (FIG. 11C)
  BLM-dependent increase in amount of hydroxyproline: markedly suppressed such an increase
[1]; oral administration (FIGS. 11A and 11B)
  BLM-dependent pulmonary injuries and collagen accumulation: suppressed such injuries and collagen accumulation
[1]; oral, day 20
  BLM-dependent pulmonary injuries: markedly improved BLM pulmonary injuries
LL29 cells [2]
  TGF-β1-induced expression of α-SMA and Col1a1 mRNA: suppressed such induction
[5]
  fibroblast cell-selective decrease in cell viability / cell death (LL29 versus A549): decreased the cell viability of LL29 cells (lung fibroblast cells) at a concentration lower than a concentration at which the cell viability of A549 cells (alveolar epithelial cells) decreased
  difference in IC50 (concentration required to decrease the cell viability by 50%) between LL29 and A549 cells: particularly marked difference in IC50 value
[9]; [12]
  BLM-dependent decrease in FVC: suppressed such a decrease
  BLM-dependent increase in total respiratory system elastance and tissue elastance: tended to suppress such an increase
[9]; intraperitoneal administration
  BLM-dependent decrease in FVC: suppressed such a decrease
  BLM-dependent increase in total respiratory system elastance and tissue elastance: suppressed such an increase
[9]; oral administration (FIG. 11D)
  BLM-dependent decrease in FVC: suppressed such a decrease
  BLM-dependent increase in total respiratory system elastance and tissue elastance: suppressed such an increase
[9]; [13]
  BLM-dependent decrease in FVC: improved such changes
  BLM-dependent increase in total respiratory system elastance and tissue elastance: improved such changes

## CCc1ccc(C(=O)C(C)CN2CCCCC2)cc1 (centres unmarked) [eperisone]
[1]; intraperitoneal administration
  BLM-dependent increase in amount of hydroxyproline: tendency of suppression
  BLM-dependent pulmonary injuries and collagen accumulation: suppressed
[1]; oral, 15 or 50 mg/kg once a day day 10 to day 18, BLM 1 mg/kg, day 20
  BLM-dependent pulmonary injuries and collagen accumulation: suppressed BLM-dependent pulmonary injuries and collagen accumulation in a concentration-dependent manner
LL29 cells [2]
  TGF-β1-induced expression of α-SMA and Col1a1 mRNA: suppressed such induction
[5]
  fibroblast cell-selective decrease in cell viability / cell death (LL29 versus A549): decreased the cell viability of LL29 cells at a concentration lower than a concentration at which the cell viability of A549 cells decreased
[9]; intraperitoneal administration
  BLM-dependent decrease in FVC: suppressed
  BLM-dependent increase in total respiratory system elastance and tissue elastance: suppressed
[9]; [14]
  BLM-dependent decrease in FVC: improved such changes in a concentration-dependent manner
  BLM-dependent increase in total respiratory system elastance and tissue elastance: improved such changes in a concentration-dependent manner

## COC(=O)c1ccc2c(c1)NC(=O)/C2=C(\Nc1ccc(N(C)C(=O)CN2CCN(C)CC2)cc1)c1ccccc1 [nintedanib]
[1]; oral, day 20
  BLM-dependent pulmonary injuries: hardly suppressed BLM-dependent pulmonary injuries
[5]
  fibroblast cell-selective decrease in cell viability / cell death (LL29 versus A549): did not induce fibroblast cell-selective cell death; also recorded: hardly induced fibroblast cell-selective cell death
